19 compounds from ChEMBL document CHEMBL6177931, “Exploring diverse frontiers: Advancements of bioactive 4-aminoquinoline-based molecular hybrids in targeted therapeutics and beyond” (Eur J Med Chem, 2024) can be followed below.

Data set [1] addresses Cholinesterase (Homo sapiens, UniProt P06276). Put plainly: Inhibition of human BChE.
A further data set deals with SMMC-7721. Put plainly: Antiproliferative activity against human SMMC-7721 cells assessed as reduction in cell proliferation incubated for 24 hrs by MTT assay. In kind it is functional, cell-based. The settings on record: SMMC-7721, 24 h. In general terms: Tetrazolium dyes change colour on reduction, which living cells bring about.
For the next data set, the system named is HepG2. Description: Antiproliferative activity against human HepG2 cells assessed as reduction in cell proliferation incubated for 24 hrs by MTT assay. The settings on record: HepG2, 24 h. In kind it is functional, cell-based.
The test system of a further data set is HL-60. Description: Cytotoxicity against human HL-60 cells assessed as reduction in cell viability incubated for 24 hrs by MTT assay. In kind it is functional, cell-based. The settings on record: HL-60, 24 h.
A further data set has as its system Jurkat E6.1. Put plainly: Cytotoxicity against human Jurkat E6.1 cells assessed as reduction in cell viability incubated for 24 hrs by MTT assay. In kind it is functional, cell-based. The note with it: Jurkat E6.1, 24 h.
In data set [2] the target is T1, Acetylcholinesterase (Electrophorus electricus, UniProt O42275). Description: Inhibition of electric eel AChE using […] as substrate preincubated for 10 mins followed by substrate addition and measured after 5 mins by Ellman's reagent based spectrophotometric analysis. (In general: DTNB colorimetry detects thiols as they appear.)
In data set [3] the target is T2, Cholinesterase (Equus caballus, UniProt P81908). Put plainly: Inhibition of equine serum BChE using […] as substrate preincubated for 10 mins followed by substrate addition and measured after 5 mins by Ellman's reagent based spectrophotometric analysis.
Data set [4] concerns Pseudomonas aeruginosa. Description: Antibacterial activity against Pseudomonas aeruginosa. In kind it is functional.
Data set [5] has as its system Staphylococcus epidermidis. Description: Antibacterial activity against Staphylococcus epidermidis. It counts as functional.
The test system of data set [6] is Bacillus subtilis. Description: Antibacterial activity against Bacillus subtilis ATCC19659. In kind it is functional.
The test system of the next data set is Proteus vulgaris. Put plainly: Antibacterial activity against Proteus vulgaris ATCC6380. In kind it is functional.
The test system of data set [7] is Escherichia coli. Put plainly: Antibacterial activity against Escherichia coli ATCC25922. In kind it is functional.
Another data set relates to Enterococcus faecalis. Put plainly: Antibacterial activity against Enterococcus faecalis ATCC13047. In kind it is functional.
The next data set concerns Pseudomonas mevalonii. Put plainly: Antibacterial activity against Pseudomonas mevalonii. In kind it is functional. The note with it: Pseudomonas sp. 'mevalonii'.
Data set [8] relates to Staphylococcus aureus. Put plainly: Antibacterial activity against Staphylococcus aureus. It counts as functional.
The subject of the next data set is Klebsiella oxytoca. Put plainly: Antibacterial activity against Klebsiella oxytoca ATCC8724. In kind it is functional.
Data set [9] deals with Mycolicibacterium smegmatis. Put plainly: Antibacterial activity against Mycobacterium smegmatis. It counts as functional.
The test system of data set [10] is Escherichia coli. Put plainly: Antibacterial activity against Escherichia coli MTCC 739 by agar streak dilution method. In kind it is functional.
Data set [11] has as its system Bacillus subtilis. Description: Antibacterial activity against Bacillus subtilis MTCC 619 by agar streak dilution method. In kind it is functional.
For data set [12], the system named is Pseudomonas aeruginosa. Description: Antibacterial activity against Pseudomonas aeruginosa MTCC 741 by agar streak dilution method. In kind it is functional.
The subject of data set [13] is Staphylococcus aureus. Put plainly: Antibacterial activity against Staphylococcus aureus MTCC 96 by agar streak dilution method. It counts as functional.
The next data set has as its system MCF7. Put plainly: Antiproliferative activity against human MCF7 cells. In kind it is functional, cell-based.
A further data set has as its system A549. Description: Antiproliferative activity against human A549 cells. In kind it is functional, cell-based.
Data set [14] concerns the target Acetylcholinesterase (Homo sapiens, UniProt P22303). Put plainly: Inhibition of human erythrocyte AChE using acetylthiocholine as substrate preincubated for 5 mins followed by substrate addition by Ellman's reagent based spectrophotometric analysis.
The nature of data set [15]: Cytotoxicity against human Huh-7 cells assessed as reduction in cell viability incubated for 2 days by MTT assay. The settings on record: time 2 day. It counts as toxicity, cell-based.
Data set [16] in a line: Inhibition of ConA-induced IL-6 secretion in female BALB/c mouse splenocyte incubated for 48 hrs by ELISA. It counts as functional, cell-based. (In general: In an ELISA, binding on a coated surface is turned into a signal by an enzyme label.)
Data set [17] in a line: Inhibition of ConA-induced TNF-alpha secretion in female BALB/c mouse splenocyte incubated for 48 hrs by ELISA. It counts as functional, cell-based.
Data set [18] in a line: Inhibition of ConA-induced IL-1beta secretion in female BALB/c mouse splenocyte incubated for 48 hrs by ELISA. In kind it is functional, cell-based.
Data set [19] concerns the target T1, Acetylcholinesterase. Put plainly: Inhibition of electric eel AChE using […] as substrate measured within 2 mins.
The target of data set [20] is T2, Cholinesterase. Put plainly: Inhibition of equine serum BChE using […] as substrate measured within 2 mins.
A short description of data set [21]: Cytotoxicity against MDCK cells assessed as cell growth inhibition incubated for 72 hrs by MTT assay. It counts as toxicity, cell-based, Canis lupus familiaris. The note with it: dog.
Data set [22] can be described thus: Antiproliferative activity against human Caco-2 cells assessed as cell growth inhibition incubated for 72 hrs by MTT assay. In kind it is toxicity, cell-based.
Data set [23] in a line: Cytotoxicity against human A375P cells assessed as cell viability incubated for 72 hrs by alamar blue reagent based assay. It counts as functional.
In data set [24] the test system is Mycobacterium tuberculosis. Description: Antitubercular activity against Mycobacterium tuberculosis H37Rv assessed as inhibition of bacterial growth at 250 microg/ml relative to control. In kind it is functional.

In brackets after ≈: the same amount, converted by molar mass. Bounds are passed on as bounds.

Chain of Cholinesterase (Homo sapiens, UniProt P06276) (P06276 whole entry): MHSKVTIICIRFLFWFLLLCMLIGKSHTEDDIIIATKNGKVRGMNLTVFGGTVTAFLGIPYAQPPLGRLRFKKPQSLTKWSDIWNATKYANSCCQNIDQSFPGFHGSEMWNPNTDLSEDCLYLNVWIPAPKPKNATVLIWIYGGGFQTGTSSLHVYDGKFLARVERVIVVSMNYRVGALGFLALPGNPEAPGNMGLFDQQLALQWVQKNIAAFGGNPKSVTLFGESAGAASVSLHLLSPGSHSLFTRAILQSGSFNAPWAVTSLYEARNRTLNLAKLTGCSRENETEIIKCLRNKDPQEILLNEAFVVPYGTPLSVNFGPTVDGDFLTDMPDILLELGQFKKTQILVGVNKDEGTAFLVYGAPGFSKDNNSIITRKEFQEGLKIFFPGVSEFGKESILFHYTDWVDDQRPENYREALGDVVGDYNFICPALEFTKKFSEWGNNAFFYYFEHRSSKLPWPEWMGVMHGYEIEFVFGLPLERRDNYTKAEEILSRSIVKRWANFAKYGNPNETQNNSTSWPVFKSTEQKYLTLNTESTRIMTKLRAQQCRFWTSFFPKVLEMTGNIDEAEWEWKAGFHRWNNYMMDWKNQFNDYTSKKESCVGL
T1 sequence (O42275 whole entry): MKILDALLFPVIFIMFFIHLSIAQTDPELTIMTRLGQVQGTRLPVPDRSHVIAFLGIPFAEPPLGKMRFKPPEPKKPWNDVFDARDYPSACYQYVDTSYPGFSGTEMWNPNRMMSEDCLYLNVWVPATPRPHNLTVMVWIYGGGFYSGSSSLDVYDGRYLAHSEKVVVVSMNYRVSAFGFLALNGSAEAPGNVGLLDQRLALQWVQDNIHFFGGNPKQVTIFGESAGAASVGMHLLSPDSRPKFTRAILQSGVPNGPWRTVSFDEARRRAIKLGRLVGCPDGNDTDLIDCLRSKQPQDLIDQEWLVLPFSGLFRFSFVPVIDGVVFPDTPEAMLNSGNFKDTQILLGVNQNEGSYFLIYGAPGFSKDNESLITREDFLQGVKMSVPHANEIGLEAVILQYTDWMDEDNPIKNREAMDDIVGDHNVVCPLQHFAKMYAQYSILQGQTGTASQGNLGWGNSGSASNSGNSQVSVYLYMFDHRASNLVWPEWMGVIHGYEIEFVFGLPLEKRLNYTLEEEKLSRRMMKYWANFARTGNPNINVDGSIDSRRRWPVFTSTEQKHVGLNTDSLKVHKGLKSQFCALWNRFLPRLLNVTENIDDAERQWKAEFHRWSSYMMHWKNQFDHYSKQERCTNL
T2 sequence (P81908 whole entry): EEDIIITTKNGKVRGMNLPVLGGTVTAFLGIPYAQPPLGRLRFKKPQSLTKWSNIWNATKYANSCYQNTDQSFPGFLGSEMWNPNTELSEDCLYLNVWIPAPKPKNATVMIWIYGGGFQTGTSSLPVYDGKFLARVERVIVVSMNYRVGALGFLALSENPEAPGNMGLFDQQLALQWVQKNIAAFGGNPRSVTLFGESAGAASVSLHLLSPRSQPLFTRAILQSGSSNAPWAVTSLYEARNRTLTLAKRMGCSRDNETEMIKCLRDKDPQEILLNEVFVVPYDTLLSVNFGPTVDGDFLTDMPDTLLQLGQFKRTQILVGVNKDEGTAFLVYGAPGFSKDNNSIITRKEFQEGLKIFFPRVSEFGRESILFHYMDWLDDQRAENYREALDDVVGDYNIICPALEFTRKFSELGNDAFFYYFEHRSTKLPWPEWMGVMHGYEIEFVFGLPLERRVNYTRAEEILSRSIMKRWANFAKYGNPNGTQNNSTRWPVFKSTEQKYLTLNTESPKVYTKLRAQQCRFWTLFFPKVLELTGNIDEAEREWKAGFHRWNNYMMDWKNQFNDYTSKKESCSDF
Chain of Acetylcholinesterase (Homo sapiens, UniProt P22303) (P22303 whole entry): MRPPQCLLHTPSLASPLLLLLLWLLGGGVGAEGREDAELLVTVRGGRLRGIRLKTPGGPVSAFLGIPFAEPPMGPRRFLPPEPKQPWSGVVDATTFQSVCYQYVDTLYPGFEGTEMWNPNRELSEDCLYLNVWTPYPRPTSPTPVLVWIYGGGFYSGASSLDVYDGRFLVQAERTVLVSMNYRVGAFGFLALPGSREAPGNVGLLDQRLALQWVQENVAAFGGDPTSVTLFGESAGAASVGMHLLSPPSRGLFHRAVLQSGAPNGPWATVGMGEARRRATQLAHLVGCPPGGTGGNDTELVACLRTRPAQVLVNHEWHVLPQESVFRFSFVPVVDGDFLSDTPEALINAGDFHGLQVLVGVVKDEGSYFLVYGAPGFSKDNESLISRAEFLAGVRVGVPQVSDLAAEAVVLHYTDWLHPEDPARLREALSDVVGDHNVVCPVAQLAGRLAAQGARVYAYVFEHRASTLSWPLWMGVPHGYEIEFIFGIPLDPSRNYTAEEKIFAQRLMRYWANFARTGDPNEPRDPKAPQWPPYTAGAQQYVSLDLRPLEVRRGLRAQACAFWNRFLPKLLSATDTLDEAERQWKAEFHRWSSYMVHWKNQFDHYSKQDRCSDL

One may read the IC50 as the concentration that inhibits the measured activity by half. `Cc1ccc(S(=O)(=O)NCCCCNc2c3c(nc4ccccc24)CCCC3)cc1` gave an IC50 against Cholinesterase [1] of 131 nM.

Take `COc1ccc(/C=N/NC(=O)c2ccc(Nc3ccnc4ccccc34)cc2)cc1OC`: the IC50 came to 9600 nM in the data set on SMMC-7721 and 12600 nM in the data set on HepG2.

For the compound `COc1cc(/C=C/C(=O)c2cccc(Nc3ccnc4cc(Cl)ccc34)c2)cc(OC)c1OC`, the IC50 in the data set on HL-60 came out at 2150 nM; with Jurkat E6.1 it was 1930 nM.

In the case of `Oc1ccccc1CNCCNc1ccnc2cc(Cl)ccc12`, the IC50 at Acetylcholinesterase [2] stood at 1970 nM; at Cholinesterase [3], 30300 nM.

Broadly, the MIC is the lowest concentration found to suppress growth. As for `CC1(C)CC[C@]2(C(=O)OCCNc3ccnc4ccc(Cl)cc34)CC[C@]3(C)C(=CC[C@@H]4[C@@]5(C)CC[C@H](O)C(C)(C)[C@@H]5CC[C@]43C)[C@@H]2C1`, the MIC with Pseudomonas aeruginosa [4] turned out to be 2500 µg/mL (≈ 3780 µM); in data set [5], 1250 µg/mL (≈ 1890 µM); against Bacillus subtilis [6] it was 2500 µg/mL (≈ 3780 µM); against Proteus vulgaris, 2500 µg/mL (≈ 3780 µM); in the data set on Escherichia coli [7], 2500 µg/mL (≈ 3780 µM); in the data set on Enterococcus faecalis it was 1250 µg/mL (≈ 1890 µM). Further, the MIC against Pseudomonas mevalonii worked out at 2500 µg/mL (≈ 3780 µM); in the data set on Staphylococcus aureus [8], 1250 µg/mL (≈ 1890 µM); with Klebsiella oxytoca, 1250 µg/mL (≈ 1890 µM); in data set [9], 1250 µg/mL (≈ 1890 µM).

Consider `CCCCCCCCOc1cc(/C=N/Nc2cc(C)nc3ccc(Cl)cc23)cc(OCCCCCCCC)c1OCCCCCCCC`, for which the MIC turned out to be 12.5 µg/mL (≈ 18.4 µM) in the data set with Escherichia coli [10], 25 µg/mL (≈ 36.7 µM) against Bacillus subtilis [11], 6.25 µg/mL (≈ 9.19 µM) against Pseudomonas aeruginosa [12] and 6.25 µg/mL (≈ 9.19 µM) in the data set on Staphylococcus aureus [13].

With `CC(=O)n1c2ccccc2c(=O)c2c(-n3ccnc3)nc3ccc(Br)cc3c21`, the concentration for half-maximal inhibition (IC50) with MCF7 turned out to be 620 nM; with A549 it was 440 nM.

On to `C=CC1(O)c2ccccc2Nc2c1c(-n1ccnc1)nc1ccc(Br)cc21` (stereo not drawn), for which the concentration for half-maximal inhibition (IC50) is 540 nM in the data set with MCF7 and 690 nM with A549.

For the compound `CC1(C)CC[C@]2(C(=O)OCCOCCNc3ccnc4ccc(Cl)cc34)CC[C@]3(C)C(=CC[C@@H]4[C@@]5(C)CC[C@H](O)C(C)(C)[C@@H]5CC[C@]43C)[C@@H]2C1`, the MIC against Pseudomonas aeruginosa [4] is 2500 µg/mL (≈ 3540 µM); in [5], 2500 µg/mL (≈ 3540 µM); against Bacillus subtilis [6], 2500 µg/mL (≈ 3540 µM); against Proteus vulgaris, 2500 µg/mL (≈ 3540 µM); with Escherichia coli [7], 1250 µg/mL (≈ 1770 µM); with Enterococcus faecalis it was 1250 µg/mL (≈ 1770 µM). Further, the MIC is 1250 µg/mL (≈ 1770 µM) against Pseudomonas mevalonii, 2500 µg/mL (≈ 3540 µM) against Staphylococcus aureus [8], 2500 µg/mL (≈ 3540 µM) in the data set on Klebsiella oxytoca and 1250 µg/mL (≈ 1770 µM) in data set [9].

Turning to `CC(C)(C)c1ccc(/C=N/CCNc2c3c(nc4ccccc24)CCCCC3)c(C(C)(C)C)c1O`, the IC50 on Acetylcholinesterase [14] is 4030 nM; on Cholinesterase [1] it was 419 nM.

Consider `Clc1ccc(C2CC(c3ccc(Nc4ccnc5cc(Cl)ccc45)cc3)=NN2)cc1` (stereo not drawn), for which the IC50 was 6170 nM in the data set with HL-60 and 6310 nM in the data set on Jurkat E6.1.

As to `Cc1ncsc1/C=N/NC(=O)c1ccc(Nc2ccnc3ccccc23)cc1`, in the data set on HepG2, the IC50 is more than 80000 nM.

A word on the CC50: it is the concentration that lowers cell viability or growth by half. As to `CCN(CCCC(C)Nc1ccnc2cc(Cl)ccc12)CCNC(=O)C(F)(F)C1CCN(CCOCCOC)CC1` (stereo not drawn), in [15], the CC50 at 48 h was 5750 nM. Further, the figures for the half-maximal inhibitory concentration (IC50) in data set [16], in data set [17] and in [18] were 2520 nM, 24400 nM and 1810 nM, respectively.

For `Nc1c2c(nc3c1C(c1ccc(F)cc1)C1=C(O3)C(=O)c3ccccc3C1=O)CCCC2` (stereo not drawn), the results for the IC50 against Acetylcholinesterase [19] and against Cholinesterase [20] were 890 nM and 13800 nM, respectively.

`Cc1ccc(S(=O)(=O)NCCCCCNc2c3c(nc4ccccc24)CCCC3)cc1`: the IC50 worked out at 62 nM on Acetylcholinesterase [14] and 68 nM on Cholinesterase [1].

One may read the GI50 as the concentration at which growth is held to half of that of the control. With `Clc1ccc2c(N3CCN(c4ccc(-c5nc6ccccc6[nH]5)cc4)CC3)ccnc2c1`, the IC50 at 72 h in [21] is more than 100000 nM. For the same compound, the GI50 at 72 h in [22] was more than 100000 nM.

Regarding `O=C(N/N=C/c1nc2ccccc2[nH]1)c1ccc(Nc2ccnc3ccccc23)cc1`, the IC50 in the data set with HepG2 was more than 80000 nM.

Consider `Clc1ccc2c(NCCCN(CCCCN(CCCNc3ccnc4cc(Cl)ccc34)Cc3ccccc3)Cc3ccccc3)ccnc2c1`, for which, in data set [23], the IC50 was 269 nM.

As usually defined, the inhibition is how much of the control response was suppressed. Turning to `CO[C@H]1/C=C/O[C@@]2(C)Oc3c(C)c(O)c4c(O)c(c(/C=N/N5CCN(C)CC5)c(O)c4c3C2=O)NC(=O)/C(C)=C\C=C\[C@H](C)[C@H](O)[C@@H](C)[C@@H](O)[C@@H](C)[C@H](OC(C)=O)[C@@H]1C` [RIFAMPIN], the inhibition at 250 µg/mL in [24] came to 98%.
